In patent US12428428B2, “Tricyclic tetrahydroisoquinoline derivative, preparation method therefor and application thereof in medicine” (JIANGSU HENGRUI MEDICINE CO., LTD., priority 2020, dated 2025):

Columns and labels:
Assay type in all cases: cell-based
MCF-7 cells = assay: Inhibition of proliferation of MCF-7 cells (ATP method, Cell Titer-Glo); conditions: Homo sapiens, MCF7; MCF-7 cells, 72 h
Description: This experiment was intended to test the inhibitory effects of the compounds disclosed herein on the proliferation of MCF-7 Cells by using the ATP method, and to evaluate the in vitro activity of the compounds according to the IC50 values.
MCF-7 cells (TCHu74, National Collection of Authenticated Cell Cultures) were seeded into a 96-well plate with an MEM (hyclone, SH30024.01B) medium containing 10% FBS (Gibco, 10099-141), 1% sodium pyruvate (sigma, 58636) and 1% non-essential amino acid (sigma, M7145) at a density of 4,000 cells/well and cultured at 37° C. with 5% CO2. 20 mM stock solutions of the compounds are prepared, serially diluted with 100% DMSO to a final concentration of 1000×, and then diluted 20-fold with a medium containing 2% FBS. After the cells were cultured for 24 h, the medium was removed. 90 μL of the medium containing 2% FBS and 10 μL of a drug were added to each well, and 10 μL of DMSO was added to the control group. The mixtures were well mixed by gentle shaking. The blank group contained only 100 μL of the medium containing 2% FBS. The cells were cultured in an incubator at 37° C. with 5% CO2 for 72 h, and then 50 μL of mixed Cell Titer-Glo (Promega, G7571) was added to each well. The mixtures were well mixed by shaking and let stand at room temperature for 10 min, and the chemiluminescence signal values were determined.
The chemiluminescence signal value was plotted against the compound concentration (in log form) using Graphpad Prism, and the IC50 values of the compounds were obtained.

[1] = system: ERα Y537S mutant-expressing MCF7 cells; assay: Inhibition of proliferation of ERα mutant-expressing MCF7 cells; conditions: Homo sapiens, 144 h
Source text: The mutant estrogen receptor α (ERα) Y537S of human ERα protein was obtained by site-directed mutagenesis in a two-primer PCR manner using the cDNA of wild-type ESR1 gene (Accession No. NM000125) as a template. The sequences of the primers used in the mutation are as follows (the underlined nucleotides are the sites of mutation): Y537S: F-AAGAACGTGGTGCCCCTCTCTGACCTGCTGCTGGAGATG (SEQ ID NO: 1); R-CATCTCCAGCAGCAGGTCAGAGAGGGGCACCACGTTCTT (SEQ ID NO: 2). The cDNA of the mutant ESR1 was cloned into the lentiviral vector of interest pCDH-CMV-MCS-EF1-Puro. The lentiviral plasmid bearing the mutant ESR1 gene sequence and the lentiviral packaging plasmid were then transfected into HEK-293T cells (ATCC, CRL-3216) by using Lipofectamine 3000 Transfection Reagent (ThermoFisher Scientific, Cat #L3000075). Forty-eight hours after transfection, the virus-bearing medium supernatant was filtered and ultracentrifuged to obtain a virus precipitate, which was then resuspended in an appropriate amount of medium. The suspension was added to MCF7 cells (ATCC, HTB-22), followed by the addition of polybrene at a final concentration of 8 μg/mL. The mixture was incubated overnight. Two days after transfection, 1 μg/mL puromycin was added to the cell culture liquid for resistance screening. About two weeks later, an MCF7 cell line capable of stably expressing the ERαY537S mutant was obtained.
The ERα mutant-expressing MCF7 cells were cultured in an MEM (GE Healthcare, SH30024.01) complete medium containing 10% fetal bovine serum. On the first day of the experiment, the cells were seeded into a 96-well plate with complete medium at a density of 3,000 cells/well to form 100 μL of cell suspension per well. The plate was incubated overnight in a cell incubator at 37° C. with 5% CO2. The following day the medium was removed, and 135 μL of an MEM incomplete medium containing 2% fetal bovine serum, and 15 μL of a test compound prepared at different concentrations with the incomplete medium were added to each well. The final concentrations of the compound were 9 concentration points obtained by 4-fold serial dilution from 100 nM. A blank control containing 0.5% DMSO was set. The plate was incubated in a cell incubator at 37° C. with 5% CO2 for 144 h. On day 8, the 96-well cell culture plate was taken out. 150 μL of CellTiter-Glo® Luminescent Cell Viability Assay (Promega, G7573) was added to each well. The plate was let stand at room temperature for 10 min, and the luminescence signal values was read using a multilabel microplate reader (PerkinElmer, VICTOR 3). The IC50 values for the inhibitory activity of the compounds were calculated according to the compound concentrations and the luminescence signal values and are shown in Table 3.

ERα = ERα (Homo sapiens (Human), UniProt P03372); assay: Degradation of ERα in MCF-7 cells (ELISA); conditions: for Dmax at 3 µM: MCF7, read-out: Emax degradation (%); for DC50: MCF-7 cells, 16 to 18 h, read-out: EC50 (nM), degradation of ERα
Chain of ERα (P03372 whole entry): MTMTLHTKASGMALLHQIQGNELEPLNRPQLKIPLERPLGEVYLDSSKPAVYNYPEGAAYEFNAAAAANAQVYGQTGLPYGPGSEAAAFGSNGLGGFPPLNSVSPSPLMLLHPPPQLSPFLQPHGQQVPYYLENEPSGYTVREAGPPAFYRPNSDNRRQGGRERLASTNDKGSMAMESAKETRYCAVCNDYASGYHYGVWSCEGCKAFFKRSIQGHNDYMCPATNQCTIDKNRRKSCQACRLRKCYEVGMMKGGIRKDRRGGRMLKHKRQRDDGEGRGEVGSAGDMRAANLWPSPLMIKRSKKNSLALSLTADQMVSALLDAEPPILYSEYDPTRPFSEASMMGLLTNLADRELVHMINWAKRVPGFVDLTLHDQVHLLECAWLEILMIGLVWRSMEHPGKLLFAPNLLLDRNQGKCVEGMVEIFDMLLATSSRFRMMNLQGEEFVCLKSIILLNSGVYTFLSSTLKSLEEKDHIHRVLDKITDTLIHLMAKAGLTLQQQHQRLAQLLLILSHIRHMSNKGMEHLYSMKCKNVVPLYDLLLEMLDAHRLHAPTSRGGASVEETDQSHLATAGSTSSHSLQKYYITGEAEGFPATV
Description: ERα-positive breast cancer cell line MCF-7 cells were cultured in a DMEM/F12 medium (HyClone, SH30023.01) containing 10% fetal bovine serum (Corning, 35-010-CV). […] The following day the compounds were serially diluted with DMSO and further diluted with the phenol red-free DMEM/F12 medium containing 5% charcoal-stripped fetal bovine serum. 20 μL of a diluted compound was added to each well of the 48-well plate at final concentrations of 3000, 300, 30, 3, 0.3, 0.03 and 0.003 nM. The 48-well plate was placed in the incubator for 16 to 18 h. A 96-well plate was coated with the capture antibody from the human ERα/NR3A1 total protein assay kit (R&D, DYC5715-5). […] The plate was placed in an incubator at 26° C. overnight. On day 3, the antibody-coated 96-well plate was washed once with PBS, and 200 μL of PBS containing 1% BSA was added to each well. The plate was incubated in an incubator at 37° C. for 1.5 h to be blocked. The cell culture medium supernatant was discarded. The cells were washed once with PBS, and 60 μL of a cell lysis buffer was added to each well. […] The cells were lysed on ice for 15 min, and 300 μL of PBS containing 1 mM EDTA and 0.5% TritonX-100 was added to each well to dilute the urea to 1 M. The blocking buffer in the blocked 96-well plate was discarded, and 100 μL of diluted cell lysis buffer was added to each well. The plate was incubated in an incubator at 37° C. for 2 h and washed 5 times with PBS. A biotinylated assay antibody was diluted to 0.4 μg/mL with PBS containing 1% BSA, and then 100 μL of the assay antibody was added to each well. The plate was incubated in an incubator at 37° C. for 1 h. The plate was then washed five more times, and 100 μL of avidin-HRP diluted 200-fold with PBS containing 1% BSA was added to each well. The plate was incubated at 37° C. for 30 min. The plate was washed five more times, and 100 μL of TMB substrate was added to each well. The plate was incubated at room temperature until blue color appeared, and 100 μL of stop solution was added to each well. OD450 signal values were read using a PHERAstar multi-mode microplate reader. The IC50 values for the inhibitory activity of the compounds were calculated using Graphpad Prism software.

Row | SMILES | IC50 (MCF-7 cells) [nM] | IC50 [1] [nM] | Dmax at 3 µM (ERα) [%] | DC50 (ERα) [nM]
1 | C[C@@H]1Cc2cc3c(cc2[C@@H](c2c(F)cc(N[C@H]4CCN(CCCF)C4)cc2F)N1CC(F)(F)F)OCO3 [Example 2, (S)—N-(3,5-difluoro-4-((5S,7R)-7-methyl-6-(2,2,2-trifluoroethyl)-5,6,7,8-tetrahydro-[1,3]dioxolo[4,5-g]isoquinolin-5-yl)phenyl)-1-(3-fluoropropyl)pyrrolidin-3-amine] | 0.17 | 0.78 | 104 | 0.24
2 | C[C@@H]1Cc2cc3c(cc2[C@@H](c2ccc(N[C@H]4CCN(CCCF)C4)cc2)N1CC(F)(F)CO)OCO3 [Example 3, 2,2-Difluoro-3-((5R,7R)-5-(4-(((S)-1-(3-fluoropropyl)pyrrolidin-3-yl)amino)phenyl)-7-methyl-7,8-dihydro-[1,3]dioxolo[4,5-g]isoquinolin-6(5H)-yl)propan-1-ol] | 0.15 | 0.43 | 129 | 0.19
3 | C[C@@H]1Cc2cc3c(cc2[C@@H](c2c(F)cc(N[C@H]4CCN(CCCF)C4)cc2F)N1CC(F)(F)CO)OCO3 [Example 5, 3-((5S,7R)-5-(2,6-difluoro-4-(((S)-1-(3-fluoropropyl)pyrrolidin-3-yl)amino)phenyl)-7-methyl-7,8-dihydro-[1,3]dioxolo[4,5-g]isoquinolin-6(5H)-yl)-2,2-difluoro-1-propanol] | 0.03 | 0.07 | 108 | 0.04
4 | C[C@@H]1Cc2cc3c(cc2[C@@H](c2ncc(N[C@H]4CCN(CCCF)C4)cc2F)N1CC(F)(F)F)OCO3 [Example 9, 5-Fluoro-N—((S)-1-(3-fluoropropyl)pyrrolidin-3-yl)-6-((5S,7R)-7-methyl-6-(2,2,2-trifluoroethyl)-5,6,7,8-tetrahydro-[1,3]dioxolo[4,5-g]isoquinolin-5-yl)pyridin-3-amine] | 0.35 | 1.35 | 107 | 1.04
5 | C[C@@H]1Cc2cc3c(cc2[C@@H](c2ncc(N[C@H]4CCN(CCCF)C4)cc2F)N1CC(F)(F)CO)OCO3 [Example 11, 2,2-Difluoro-3-((5S,7R)-5-(3-fluoro-5-(((S)-1-(3-fluoropropyl)pyrrolidin-3-yl)amino)pyridin-2-yl)-7-methyl-7,8-dihydro-[1,3]dioxolo[4,5-g]isoquinolin-6(5H)-yl)propan-1-ol] | 0.23 | 0.71 | 91 | 0.45

Further lines, results first:

Row | IC50 (MCF-7 cells) [nM] | IC50 [1] [nM] | Dmax at 3 µM (ERα) [%] | DC50 (ERα) [nM] | SMILES
6 | 0.31 | 1.38 | 94 | 0.32 | C[C@@H]1Cc2cc3c(cc2[C@@H](c2ccc(N[C@H]4CCN(CCCF)C4)cc2)N1CC(F)(F)F)OCO3 [Example 1, (S)-1-(3-fluoropropyl)-N-(4-((5R,7R)-7-methyl-6-(2,2,2-trifluoroethyl)-5,6,7,8-tetrahydro-[1,3]dioxolo[4,5-g]isoquinolin-5-yl)phenyl)pyrrolidin-3-amine]
7 | 0.28 | 0.89 | 115 | 0.21 | C[C@@H]1Cc2cc3c(cc2[C@@H](c2ccc(N[C@H]4CCN(CCCF)C4)cn2)N1CC(F)(F)CO)OCO3 [Example 4, 2,2-Difluoro-3-((5S,7R)-5-(5-(((S)-1-(3-fluoropropyl)pyrrolidin-3-yl)amino)pyridin-2-yl)-7-methyl-7,8-dihydro-[1,3]dioxolo[4,5-g]isoquinolin-6(5H)-yl)propan-1-ol]
8 | 0.34 | 0.82 | 104 | 0.17 | C[C@@H]1Cc2cc3c(cc2[C@@H](c2ccc(N[C@H]4CCN(CCCF)C4)cn2)N1CC(F)(F)F)OCO3 [Example 6, N—((S)-1-(3-fluoropropyl)pyrrolidin-3-yl)-6-((5S,7R)-7-methyl-6-(2,2,2-trifluoroethyl)-5,6,7,8-tetrahydro-[1,3]dioxolo[4,5-g]isoquinolin-5-yl)pyridin-3-amine]
